Assay results reported in PubChem BioAssay (NCI).
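Test compounds were applied to cells in 96-well plates for 48 hours at 5 doses. GI50 is the concentration that inhibits growth by half. TGI denotes the concentration required for complete inhibition of growth.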

Tests used:
Test in all cases: NCI tumour cell line growth inhibition, 48 h
[1] = test system: NCI-H23 lung
[2] = test system: A549 NSCLC
[3] = test system: UACC-257 melanoma
[4] = test system: OVCAR-3 ovarian
[5] = test system: KM12 colon
[6] = test system: HCT-116 colon
[7] = test system: RPMI-8226 leukemia
[8] = test system: MDA-MB-231 breast
[9] = test system: SF-268 CNS
[10] = test system: IGROV1 ovarian
[11] = test system: SK-MEL-2 melanoma
[12] = test system: HCC-2998 colon
[13] = test system: COLO 205 colon
[14] = test system: SK-MEL-28 melanoma
[15] = test system: HOP-92 NSCLC
[16] = test system: M14 melanoma
[17] = test system: SF-539 CNS
[18] = test system: SR leukemia
[19] = test system: OVCAR-4 ovarian
[20] = test system: EKVX NSCLC
[21] = test system: ACHN renal
[22] = test system: HOP-62 NSCLC
[23] = test system: MALME-3M melanoma
[24] = test system: UACC-62 melanoma
[25] = test system: T-47D breast
[26] = test system: NCI-H522 lung
[27] = test system: LOX IMVI melanoma
[28] = test system: SN12C renal
[29] = test system: DU-145 prostate
[30] = test system: SK-OV-3 ovarian
[31] = test system: RXF 393 renal
[32] = test system: BT-549 breast
[33] = test system: CAKI-1 renal
[34] = test system: NCI-H460 lung
[35] = test system: CCRF-CEM leukemia
[36] = test system: HCT-15 colon
[37] = test system: NCI/ADR-RES ovarian
[38] = test system: HT29 colon
[39] = test system: SNB-75 CNS
[40] = test system: A498 renal
[41] = test system: U251 CNS
[42] = test system: 786-0 renal
[43] = test system: MCF7 breast
[44] = test system: OVCAR-5 ovarian
[45] = test system: MDA-MB-435
[46] = test system: SK-MEL-5 melanoma
[47] = test system: SW-620 colon
[48] = test system: SF-295 CNS
[49] = test system: UO-31 renal
[50] = test system: PC-3 prostate

NCCCNc1nc2ccccc2c2c(=O)c3cc(F)ccc3sc12 was tested, and the GI50 [1] was 1.64 µM, the TGI [1] was 3.19 µM and the GI50 [2] was 1.59 µM. The TGI [2] was 3.48 µM, the GI50 [3] was 1.79 µM and the TGI [3] was 3.81 µM. For the same compound, the GI50 [4] was 1.7 µM, the TGI [4] was 3.25 µM and the GI50 [5] was 1.8 µM. It also gave a TGI [5] of 3.36 µM, a GI50 [6] of 1.43 µM and a TGI [6] of 2.77 µM. It also gave a GI50 [7] of 1.77 µM, a TGI [7] of 3.65 µM and a GI50 [8] of 1.45 µM. The TGI [8] was 2.9 µM, the GI50 [9] was 1.45 µM and the TGI [9] was 3.12 µM. It also gave a GI50 [10] of 1.42 µM, a TGI [10] of 2.9 µM and a GI50 [11] of 1.75 µM. The TGI [11] was 3.43 µM, the GI50 [12] was 1.64 µM and the TGI [12] was 3.14 µM. For the same compound, the GI50 [13] was 1.69 µM, the TGI [13] was 3.48 µM and the GI50 [14] was 1.79 µM. The TGI [14] was 3.24 µM, the GI50 [15] was 1.31 µM and the TGI [15] was 3.33 µM. For the same compound, the GI50 [16] was 1.69 µM, the TGI [16] was 3.11 µM and the GI50 [17] was 1.71 µM. For the same compound, the TGI [17] was 3.1 µM, the GI50 [18] was 1.48 µM and the TGI [18] was 4.09 µM. For the same compound, the GI50 [19] was 1.75 µM, the TGI [19] was 3.4 µM and the GI50 [20] was 1.57 µM. The TGI [20] was 3.01 µM, the GI50 [21] was 1.58 µM and the TGI [21] was 2.93 µM. The GI50 [22] was 1.43 µM, the TGI [22] was 3.15 µM and the GI50 [23] was 1.71 µM. It also gave a TGI [23] of 3.22 µM, a GI50 [24] of 1.62 µM and a TGI [24] of 3.01 µM. The GI50 [25] was 1.63 µM, the TGI [25] was 3.58 µM and the GI50 [26] was 1.64 µM. It also gave a TGI [26] of 3.45 µM, a GI50 [27] of 1.43 µM and a TGI [27] of 2.83 µM. The GI50 [28] was 1.48 µM, the TGI [28] was 2.93 µM and the GI50 [29] was 1.73 µM. It also gave a TGI [29] of 3.21 µM, a GI50 [30] of 1.56 µM and a TGI [30] of 3.31 µM. The GI50 [31] was 1.42 µM, the TGI [31] was 2.74 µM and the GI50 [32] was 1.51 µM. For the same compound, the TGI [32] was 2.96 µM, the GI50 [33] was 1.41 µM and the TGI [33] was 2.75 µM. For the same compound, the GI50 [34] was 1.65 µM, the TGI [34] was 3.22 µM and the GI50 [35] was 1.81 µM. The TGI [35] was 3.72 µM, the GI50 [36] was 1.43 µM and the TGI [36] was 2.84 µM. For the same compound, the GI50 [37] was 1.7 µM, the TGI [37] was 3.36 µM and the GI50 [38] was 1.54 µM. For the same compound, the TGI [38] was 3.14 µM, the GI50 [39] was 1.31 µM and the TGI [39] was 2.64 µM. The GI50 [40] was 1.48 µM, the TGI [40] was 3.36 µM and the GI50 [41] was 1.64 µM. For the same compound, the TGI [41] was 3.25 µM, the GI50 [42] was 1.54 µM and the TGI [42] was 3.01 µM. It also gave a GI50 [43] of 1.4 µM, a TGI [43] of 2.88 µM and a GI50 [44] of 1.61 µM. For the same compound, the TGI [44] was 3.05 µM, the GI50 [45] was 1.75 µM and the TGI [45] was 3.27 µM. For the same compound, the GI50 [46] was 1.73 µM, the TGI [46] was 3.13 µM and the GI50 [47] was 1.64 µM. It also gave a TGI [47] of 3.27 µM, a GI50 [48] of 1.76 µM and a TGI [48] of 3.21 µM. The GI50 [49] was 1.27 µM, the TGI [49] was 2.57 µM and the GI50 [50] was 1.45 µM. It also gave a TGI [50] of 2.98 µM.
